For the data set the following is noted: for aqueous solubility: pH 6.8.

The structures appear in SMILES notation. In brackets after ≈: the same amount, converted by molar mass.

For the compound `CN(Cc1ccc(C(=O)O)cc1)C(=O)c1ccnn1C`, the MDR1-MDCK efflux ratio is 0.663; the intrinsic clearance, human liver microsomes was no more than 4.74 mL/min/kg; the intrinsic clearance, rat liver microsomes is no more than 10.7 mL/min/kg.

Consider `CN(CCN1CCOC1=O)C(=O)c1cc2cc(Br)ccc2o1`, for which the MDR1-MDCK efflux ratio was found to be 2.28; the intrinsic clearance, human liver microsomes amounted to 13.2 mL/min/kg; the intrinsic clearance, rat liver microsomes was 107 mL/min/kg; the aqueous solubility was found to be 50.9 µg/mL (≈ 139 µM).

Turning to `c1ccc(NCc2ccc3c(c2)OCCCO3)nc1`, the MDR1-MDCK efflux ratio was determined as 0.701; the intrinsic clearance, human liver microsomes stood at 66.5 mL/min/kg; the intrinsic clearance, rat liver microsomes turned out to be 7100 mL/min/kg.

As to `O=C(Cc1cccnc1)Nc1ncccc1Cl`, the MDR1-MDCK efflux ratio was 0.704; the intrinsic clearance, human liver microsomes is no more than 4.74 mL/min/kg; the intrinsic clearance, rat liver microsomes came to 31.1 mL/min/kg.

For `Cc1cc(C)c2c(N(C)CCC(C)C)ncnc2n1`, the MDR1-MDCK efflux ratio amounted to 0.862; the intrinsic clearance, human liver microsomes was 14.3 mL/min/kg; the intrinsic clearance, rat liver microsomes amounted to 1220 mL/min/kg; the aqueous solubility came out at 37.5 µg/mL (≈ 145 µM).

Turning to `O=C(NCc1ccc(F)cc1)C1CCN(C(=O)/C=C/c2ccccc2)CC1`, the MDR1-MDCK efflux ratio is 6.17; the intrinsic clearance, human liver microsomes is no more than 4.74 mL/min/kg; the intrinsic clearance, rat liver microsomes is 133 mL/min/kg; the aqueous solubility came out at 8.26 µg/mL (≈ 22.5 µM).

Consider `Cc1cccc(N(C)C(=S)Oc2ccc3ccccc3c2)c1`, for which the aqueous solubility stood at 0.7 µg/mL (≈ 2.28 µM).

Consider `CN(C(=O)OC(C)(C)C)c1ccc2ccccc2n1`, for which the MDR1-MDCK efflux ratio was found to be 0.472 and the aqueous solubility was determined as 0.28 µg/mL (≈ 1.08 µM).

`CNC(=O)CCc1nc(-c2ccccn2)no1`: the MDR1-MDCK efflux ratio stood at 1.05; the intrinsic clearance, human liver microsomes is no more than 4.74 mL/min/kg; the intrinsic clearance, rat liver microsomes was no more than 10.7 mL/min/kg; the aqueous solubility was found to be 50.5 µg/mL (≈ 217 µM).

Consider `O=C1N=C2C=CC=CN2C12Cc1ccccc1C2`, for which the MDR1-MDCK efflux ratio came to 4.09; the intrinsic clearance, human liver microsomes is no more than 4.74 mL/min/kg; the intrinsic clearance, rat liver microsomes is no more than 10.7 mL/min/kg; the aqueous solubility was found to be 37.4 µg/mL (≈ 158 µM).

On to `Cc1ccc(N/N=C2\C(=O)N(C)N=C2Nc2ccccc2Cl)cc1`, for which the aqueous solubility is 0.5 µg/mL (≈ 1.46 µM).

Regarding `c1ccc(-c2nn3c(-c4ccco4)nnc3c3ccccc23)cc1`, the aqueous solubility was found to be 0.17 µg/mL (≈ 0.544 µM).

`COc1ccc(Cl)cc1N(CC(=O)Nc1ccccc1C(=O)NCc1ccccc1)S(C)(=O)=O` showed an intrinsic clearance, human liver microsomes of 594 mL/min/kg and an intrinsic clearance, rat liver microsomes of 1370 mL/min/kg.

`C#CCOc1ccc(C(=O)NN2CCCC2=O)cc1`: the MDR1-MDCK efflux ratio turned out to be 1.32; the intrinsic clearance, human liver microsomes was no more than 4.74 mL/min/kg; the intrinsic clearance, rat liver microsomes is no more than 10.7 mL/min/kg; the aqueous solubility came to 25.3 µg/mL (≈ 97.9 µM).

Consider `O=C1CCCN1CCCc1nc(Cc2c(Cl)cccc2Cl)n[nH]1`, for which the MDR1-MDCK efflux ratio was 78.4; the intrinsic clearance, human liver microsomes turned out to be 46.1 mL/min/kg; the intrinsic clearance, rat liver microsomes is 381 mL/min/kg.

As to `COc1ccc(-c2nnc(-c3ccccc3)o2)cc1OC`, the MDR1-MDCK efflux ratio was 0.227; the intrinsic clearance, human liver microsomes worked out at 49.4 mL/min/kg; the intrinsic clearance, rat liver microsomes stood at 50.8 mL/min/kg; the aqueous solubility came out at 4.34 µg/mL (≈ 15.4 µM).

As to `CC(C)(C)NC(=O)c1cncn1C1CCN(c2ccc(-c3nnc(C(F)(F)F)o3)cn2)CC1`, the MDR1-MDCK efflux ratio amounted to 8.45; the intrinsic clearance, human liver microsomes is no more than 4.74 mL/min/kg; the intrinsic clearance, rat liver microsomes was 25.3 mL/min/kg; the aqueous solubility worked out at 61.1 µg/mL (≈ 132 µM).

Turning to `CC(C)N1CCC(O)(c2ccccc2F)CC1`, the MDR1-MDCK efflux ratio came to 0.537; the intrinsic clearance, human liver microsomes is no more than 4.74 mL/min/kg; the intrinsic clearance, rat liver microsomes amounted to 362 mL/min/kg; the aqueous solubility came out at 41.5 µg/mL (≈ 175 µM).

In turn, `Cc1nc(C)n(-c2ccccc2NC(=O)c2cc(C#N)cn2C)n1` yielded an intrinsic clearance, human liver microsomes of 11.6 mL/min/kg and an intrinsic clearance, rat liver microsomes of 163 mL/min/kg.

For `COCCNC(=O)CN1CCN(c2nccn2-c2cccc(Cl)c2)CC1`, the MDR1-MDCK efflux ratio amounted to 52.5; the intrinsic clearance, human liver microsomes was determined as 5.04 mL/min/kg; the intrinsic clearance, rat liver microsomes turned out to be 353 mL/min/kg; the aqueous solubility came to 60.9 µg/mL (≈ 161 µM).

On to `CCS(=O)(=O)Cc1ccn(-c2cccc(F)c2)n1`, for which the MDR1-MDCK efflux ratio was found to be 0.632; the intrinsic clearance, human liver microsomes is no more than 4.74 mL/min/kg; the intrinsic clearance, rat liver microsomes came out at 38.7 mL/min/kg; the aqueous solubility stood at 49.2 µg/mL (≈ 183 µM).

Consider `CCC(CC)N1CC[C@H](O)[C@@](O)(COc2cc(C)ccc2Cl)C1`, for which the MDR1-MDCK efflux ratio amounted to 1.18; the intrinsic clearance, human liver microsomes was found to be 371 mL/min/kg; the intrinsic clearance, rat liver microsomes turned out to be 4650 mL/min/kg.

Turning to `O=c1c2oc3ccccc3c2ncn1Cc1ccc(Cl)cc1`, the MDR1-MDCK efflux ratio came to 0.573; the intrinsic clearance, human liver microsomes was found to be 103 mL/min/kg; the intrinsic clearance, rat liver microsomes amounted to 906 mL/min/kg.

Take `NC(=O)Cn1nnc(-c2ccccc2)n1`: the aqueous solubility was 11 µg/mL (≈ 54.1 µM).

With `Cc1cc(C)nc(Nc2ccc(C3CCCN(CC(=O)N4CCCC4)C3)nc2)n1` (stereo not given), the MDR1-MDCK efflux ratio is 41.3; the intrinsic clearance, human liver microsomes worked out at 8.28 mL/min/kg; the intrinsic clearance, rat liver microsomes turned out to be 118 mL/min/kg; the aqueous solubility came out at 66.6 µg/mL (≈ 169 µM).

In turn, `O=C(Nc1ccccc1-c1cn2c(CN3CCNCC3)csc2n1)c1cnc2ccccc2n1` returned an intrinsic clearance, human liver microsomes of 9.54 mL/min/kg; an intrinsic clearance, rat liver microsomes of 19.2 mL/min/kg; an aqueous solubility of 1.49 µg/mL (≈ 3.17 µM).

Turning to `CCOc1ncccc1-c1cc(Cl)ccc1O`, the MDR1-MDCK efflux ratio amounted to 0.595; the intrinsic clearance, human liver microsomes is 59.9 mL/min/kg; the intrinsic clearance, rat liver microsomes stood at 654 mL/min/kg; the aqueous solubility stood at 22.7 µg/mL (≈ 90.9 µM).

`CC(C)(C)Nc1cc(NCC2CCOCC2)c2ncc(-c3ccc(C(=O)NC4CC4)cc3)n2n1`: the MDR1-MDCK efflux ratio turned out to be 7.52 and the aqueous solubility was determined as 0.4 µg/mL (≈ 0.865 µM).

For the compound `Cc1cccn(Cc2cccc(C#N)c2)c1=O`, the MDR1-MDCK efflux ratio was found to be 0.69; the intrinsic clearance, human liver microsomes is no more than 4.74 mL/min/kg; the intrinsic clearance, rat liver microsomes amounted to 28.8 mL/min/kg; the aqueous solubility was 30.9 µg/mL (≈ 138 µM).

With `O=C(CCCOc1ccccc1)N1CCCC1`, the MDR1-MDCK efflux ratio worked out at 0.631; the intrinsic clearance, human liver microsomes is 10.4 mL/min/kg; the intrinsic clearance, rat liver microsomes is 295 mL/min/kg; the aqueous solubility stood at 30.5 µg/mL (≈ 131 µM).

As for `O=C(Nc1cccc2ncccc12)[C@H]1CCCN(S(=O)(=O)c2ccccc2)C1`, the MDR1-MDCK efflux ratio was 13; the fraction unbound, human plasma turned out to be 0.167; the fraction unbound, rat plasma amounted to 0.123; the intrinsic clearance, human liver microsomes was found to be 37.9 mL/min/kg. This compound returned an intrinsic clearance, rat liver microsomes of 545 mL/min/kg.

In the case of `Cc1ccc(Cl)c(OC[C@@]2(O)CN(C3CCCC3)CC[C@@H]2O)c1`, the MDR1-MDCK efflux ratio turned out to be 1.03; the intrinsic clearance, human liver microsomes came out at 325 mL/min/kg; the intrinsic clearance, rat liver microsomes worked out at 2250 mL/min/kg.

Consider `CCN(CC)Cc1cccc(/C=C/c2nc3ccc(F)cc3c(=O)n2-c2ccccc2Cl)n1`, for which the MDR1-MDCK efflux ratio was found to be 8.43; the intrinsic clearance, human liver microsomes stood at 69.4 mL/min/kg; the intrinsic clearance, rat liver microsomes is 516 mL/min/kg; the aqueous solubility is 67.5 µg/mL (≈ 146 µM).

In the case of `Cc1ccc(Cl)c(OC[C@@]2(O)CN(C3CCC3)CC[C@@H]2O)c1`, the MDR1-MDCK efflux ratio was found to be 0.695; the intrinsic clearance, human liver microsomes turned out to be 166 mL/min/kg; the intrinsic clearance, rat liver microsomes was determined as 2290 mL/min/kg.

Consider `O=C(NCC1(c2ccccc2)CC1)c1cccnc1`, for which the MDR1-MDCK efflux ratio worked out at 0.757; the intrinsic clearance, human liver microsomes was no more than 4.74 mL/min/kg; the intrinsic clearance, rat liver microsomes stood at 231 mL/min/kg; the aqueous solubility was determined as 41.2 µg/mL (≈ 163 µM).

`O=c1[nH]c2ccccc2n1C1CCN(Cc2coc(-c3cccs3)n2)CC1` yielded an intrinsic clearance, human liver microsomes of 29.4 mL/min/kg and an intrinsic clearance, rat liver microsomes of 475 mL/min/kg.

As to `O=C(NCC1(N2CCCCC2)CCCC1)c1cnn[nH]1`, the MDR1-MDCK efflux ratio turned out to be 31.7; the intrinsic clearance, human liver microsomes was no more than 4.74 mL/min/kg; the intrinsic clearance, rat liver microsomes was no more than 10.7 mL/min/kg.

In the case of `c1ccc(-c2noc(Cn3ccnc3)n2)nc1`, the MDR1-MDCK efflux ratio turned out to be 1.44; the intrinsic clearance, human liver microsomes was no more than 4.74 mL/min/kg; the intrinsic clearance, rat liver microsomes was no more than 10.7 mL/min/kg.

Consider `Cc1ccc(C)c(NC(=O)CN2CCCN(c3ccc(C(F)(F)F)cn3)CC2)c1`, for which the MDR1-MDCK efflux ratio stood at 0.959; the intrinsic clearance, human liver microsomes stood at 447 mL/min/kg; the intrinsic clearance, rat liver microsomes was found to be 1940 mL/min/kg; the aqueous solubility came to 11.9 µg/mL (≈ 29.4 µM).

`Cc1oc2ncnc(NCc3cc(F)cc4c3OCOC4)c2c1C`: the MDR1-MDCK efflux ratio stood at 0.553; the intrinsic clearance, human liver microsomes worked out at 127 mL/min/kg; the intrinsic clearance, rat liver microsomes turned out to be 2040 mL/min/kg.

On to `COCc1cccc(NC(=O)c2cn(C)c3ccccc23)c1`, for which the aqueous solubility was 3.71 µg/mL (≈ 12.6 µM).

With `Cc1ccccc1S(=O)(=O)Nc1c(C)ccnc1Cl`, the MDR1-MDCK efflux ratio came to 0.795; the intrinsic clearance, human liver microsomes was no more than 4.74 mL/min/kg; the intrinsic clearance, rat liver microsomes stood at 194 mL/min/kg.

As to `CC(C)c1nccn1Cc1nc(-c2cccs2)no1`, the intrinsic clearance, human liver microsomes is 13.6 mL/min/kg and the intrinsic clearance, rat liver microsomes came to 1930 mL/min/kg.

Consider `CCCCN(C)C(=O)c1cn(-c2ccc(C)c(C)c2)nn1`, for which the intrinsic clearance, human liver microsomes came out at 127 mL/min/kg; the intrinsic clearance, rat liver microsomes stood at 530 mL/min/kg; the aqueous solubility was found to be 8.81 µg/mL (≈ 30.8 µM).

Take `Cc1sc2nc(CN3CCOCC3)nc(N3CCN(c4ccncc4)CC3)c2c1C`: the MDR1-MDCK efflux ratio worked out at 28.9; the intrinsic clearance, human liver microsomes was 18.3 mL/min/kg; the intrinsic clearance, rat liver microsomes was determined as 281 mL/min/kg; the aqueous solubility is 76.6 µg/mL (≈ 180 µM).

For `CCc1c(O)cc(O)c(C(=O)c2ccc(OCCN3CCOCC3)c(OC)c2)c1CC(=O)N(CCOC)CCOC`, the MDR1-MDCK efflux ratio is 7.53; the intrinsic clearance, human liver microsomes amounted to 28.1 mL/min/kg; the intrinsic clearance, rat liver microsomes stood at 209 mL/min/kg.

Take `O=C(NCc1ccccc1)c1ccc(NS(=O)(=O)c2ccc(C3CCCCC3)cc2)cc1`: the MDR1-MDCK efflux ratio was 2.69; the intrinsic clearance, human liver microsomes came to 81 mL/min/kg; the intrinsic clearance, rat liver microsomes was determined as 402 mL/min/kg; the aqueous solubility was determined as 1.57 µg/mL (≈ 3.5 µM).

Consider `Cc1nc2cc(C(=O)NC34CCCC3NCC4)ccc2c(=O)[nH]1` (stereo not given), for which the MDR1-MDCK efflux ratio was 0.754; the fraction unbound, human plasma worked out at 0.735; the intrinsic clearance, human liver microsomes was no more than 4.74 mL/min/kg.

In general, aqueous solubility refers to the concentration that dissolves in the medium under given conditions. A low value points to little dissolved substance.
